Source: patent US6566087B1, “Phosphodiesterase 8A” (ICOS Corporation, priority 1997, dated 2003)
Read-outs that look alike come from different tables or passages of the source.

Tests used:
Assay type in all cases: biochemical
PDE8A [1] = target: T1, PDE8A (Homo sapiens, UniProt Q9Y233); experiment: Inhibition of recombinant PDE8A activity (32P-phosphate release from 32P-cAMP); details: for Fold Difference: IC50 for PDE8 versus IC50 for target family; for IC50: read-out: IC50 for PDE8
T1 construct: made in house; host or cells: yeast strain BJ2-54 lacking endogenous PDE activity; plasmid W48-2ADH2 (ATCC 98552); crude yeast extract
T1 sequence (Q9Y233 290-1055 limits assumed): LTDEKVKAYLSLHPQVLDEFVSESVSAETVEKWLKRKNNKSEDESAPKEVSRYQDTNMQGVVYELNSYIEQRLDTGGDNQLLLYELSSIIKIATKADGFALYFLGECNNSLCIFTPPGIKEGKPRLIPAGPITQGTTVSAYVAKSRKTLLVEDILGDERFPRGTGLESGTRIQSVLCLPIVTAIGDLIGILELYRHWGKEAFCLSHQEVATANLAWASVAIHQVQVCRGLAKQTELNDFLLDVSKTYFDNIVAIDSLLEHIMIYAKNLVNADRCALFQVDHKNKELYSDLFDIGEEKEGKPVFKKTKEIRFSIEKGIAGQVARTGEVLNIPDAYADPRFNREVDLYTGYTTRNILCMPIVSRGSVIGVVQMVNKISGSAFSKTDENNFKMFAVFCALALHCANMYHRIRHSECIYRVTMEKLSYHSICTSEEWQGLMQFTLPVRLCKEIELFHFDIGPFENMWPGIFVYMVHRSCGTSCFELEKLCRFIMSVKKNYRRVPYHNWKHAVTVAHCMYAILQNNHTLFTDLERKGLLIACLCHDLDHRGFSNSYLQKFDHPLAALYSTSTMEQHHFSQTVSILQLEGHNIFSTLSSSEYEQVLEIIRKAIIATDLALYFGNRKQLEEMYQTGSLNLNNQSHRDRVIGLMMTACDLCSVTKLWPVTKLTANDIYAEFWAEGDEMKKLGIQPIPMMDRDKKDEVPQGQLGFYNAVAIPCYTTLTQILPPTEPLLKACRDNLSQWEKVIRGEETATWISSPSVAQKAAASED
Procedure: (§1) Frozen cell pellets (0.06 ml) were thawed and suspended in 0.2 ml lysis buffer containing 100 mM MOPS, pH 8.0, 200 mM NaCl, 2 μM […], 2 mM dithiothreitol, and 10 μg/ml each protease inhibitors pepstatin, leupeptin, and aprotinin. Approximately 0.2 ml of 0.5 mm glass beads were added to the cells which were then lysed with four 30-second cycles of vortexing. The lysate was aspirated and the beads were washed twice with 0.3 ml lysis buffer. The lysate was combined with the washes to generate the yeast extract. In some experiments the lysate was fractionated by centrifugation at 105,000×g for thirty minutes.
(§2) PDE activity was assayed by detection of ^32P-phosphate released from ^32P-cAMP or ^32P-cGMP as described previously [Loughney et al., J. Biol. Chem. 271:796-806 (1996)]. The yeast extract was diluted in 0.5×lysis buffer also containing 0.5 mg/ml bovine serum albumin. Twenty μl of the yeast extract, or diluted yeast extract, was assayed in a 100 μl reaction volume which included an additional 50 mM Tris-HCl (pH 8.0), 5 mM MgCl2 1 μM Zn SO2, and 0.1 mg/ml bovine serum albumin. Protein concentration was assayed by the method of Bradford.

PDE3 = experiment: IC50 of isozyme-selective inhibitor for its target family PDE3; details: Target PDE Family PDE3
PDE5 = PDE5 (Homo sapiens, UniProt O76074); experiment: IC50 of isozyme-selective inhibitor for its target family PDE5; details: Target PDE Family PDE5
PDE2 = PDE2 (Homo sapiens, UniProt O00408); experiment: IC50 of isozyme-selective inhibitor for its target family PDE2; details: Target PDE Family PDE2
Sequence of PDE2 (O00408 whole entry): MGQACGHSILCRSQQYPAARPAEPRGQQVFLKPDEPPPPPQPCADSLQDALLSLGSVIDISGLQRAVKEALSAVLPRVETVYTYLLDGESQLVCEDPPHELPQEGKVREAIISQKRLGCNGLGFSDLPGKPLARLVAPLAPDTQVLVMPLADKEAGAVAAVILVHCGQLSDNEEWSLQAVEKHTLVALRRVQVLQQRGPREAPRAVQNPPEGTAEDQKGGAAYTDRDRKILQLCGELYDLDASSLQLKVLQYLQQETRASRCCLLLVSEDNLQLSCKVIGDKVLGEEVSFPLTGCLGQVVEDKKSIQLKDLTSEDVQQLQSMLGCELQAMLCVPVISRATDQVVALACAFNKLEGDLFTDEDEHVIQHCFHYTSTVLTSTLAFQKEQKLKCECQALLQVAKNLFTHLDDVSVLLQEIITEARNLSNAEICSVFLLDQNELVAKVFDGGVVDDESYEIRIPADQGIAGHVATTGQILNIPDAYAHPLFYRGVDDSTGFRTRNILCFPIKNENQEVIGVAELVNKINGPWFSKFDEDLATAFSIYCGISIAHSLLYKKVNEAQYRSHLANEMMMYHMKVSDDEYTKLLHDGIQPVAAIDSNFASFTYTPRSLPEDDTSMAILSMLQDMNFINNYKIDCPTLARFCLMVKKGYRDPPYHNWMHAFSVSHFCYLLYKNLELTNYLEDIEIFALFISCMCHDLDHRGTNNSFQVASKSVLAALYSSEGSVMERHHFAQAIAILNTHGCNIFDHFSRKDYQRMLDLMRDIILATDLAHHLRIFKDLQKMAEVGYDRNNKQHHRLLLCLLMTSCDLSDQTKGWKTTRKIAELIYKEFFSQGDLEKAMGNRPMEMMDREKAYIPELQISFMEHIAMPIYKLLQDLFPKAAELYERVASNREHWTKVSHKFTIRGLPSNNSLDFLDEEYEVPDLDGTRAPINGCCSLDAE

[2] = system: known human PDEs (Non-selective); experiment: IC50 of non-selective inhibitor for known PDEs; details: read-out: IC50 for Target Family
PDE8A [3] = target: T1, PDE8A; experiment: Kinetic analysis of PDE8A hydrolysis of cyclic nucleotide substrates in yeast extract; details: estimated, substrate of PDE8A, yeast lysate
Procedure: as §1
as §2, with “The” for “PDE activity was assayed by detection of ^32P-phosphate released from ^32P-cAMP or ^32P-cGMP as described previously [Loughney et al., J. Biol. Chem. 271:796-806 (1996)]. The”

[4] = cAMP concentration of 60 nM, low Km form only, yeast extract

| Fold Difference (PDE8A [1]) | IC50 (PDE8A [1]; [4]) [µM] | Structure (SMILES) | IC50 (PDE8A [1]) [µM] | further results |
| --- | --- | --- | --- | --- |
| 31 |  | CCCCCCC(C(C)O)n1cnc2c(N)ncnc21 (stereo not drawn) [EHNA, erythro-9-(2-hydroxy-3-nonyl)adenine] | 65 | IC50 (PDE2): 2000 nM |
| 0.12-4.6 | 4.6 | CC(C)Cn1c(=O)n(C)c(=O)c2[nH]cnc21 [IBMX, isomethyl butyl xanthine] |  | IC50 [2]: 1 to 40 µM |

Further lines, the compound ahead of its results:

| Structure (SMILES) | Fold Difference (PDE8A [1]) | IC50 (PDE8A [1]; [4]) [µM] | IC50 (PDE8A [1]) [µM] | further results |
| --- | --- | --- | --- | --- |
| CN(C(=O)CCCOc1ccc2[nH]c(=O)ccc2c1)C1CCCCC1 [Cilostamide] | 750 |  | 12 | IC50 (PDE3): 20 nM |
| CCCOc1ccc(NS(C)(=O)=O)cc1-c1nc2c(c(C)nn2C)c(=O)[nH]1 [DMPPO] | 66 | 1.1 |  | IC50 (PDE5): 16 nM |
| Nc1nc2c(ncn2[C@@H]2O[C@@H]3COP(=O)(O)O[C@H]3[C@H]2O)c(=O)[nH]1 [cGMP] |  |  |  | Km (PDE8A [3]; read-out: Km, high Km form): 300 µM; Km (PDE8A [3]; read-out: Km, low Km form): 3 µM |
